From patent US20260138961A1, “MODULATORS OF MITOCHONDRIAL DNA REPLICATION” (Pretzel Therapeutics, Inc., priority 2022, published 2026) come the findings set out here.

The target of this assay is T1, POLγA:A467T (Homo sapiens, UniProt P54098, A467T).
T1 sequence (P54098 1-1239 A467T): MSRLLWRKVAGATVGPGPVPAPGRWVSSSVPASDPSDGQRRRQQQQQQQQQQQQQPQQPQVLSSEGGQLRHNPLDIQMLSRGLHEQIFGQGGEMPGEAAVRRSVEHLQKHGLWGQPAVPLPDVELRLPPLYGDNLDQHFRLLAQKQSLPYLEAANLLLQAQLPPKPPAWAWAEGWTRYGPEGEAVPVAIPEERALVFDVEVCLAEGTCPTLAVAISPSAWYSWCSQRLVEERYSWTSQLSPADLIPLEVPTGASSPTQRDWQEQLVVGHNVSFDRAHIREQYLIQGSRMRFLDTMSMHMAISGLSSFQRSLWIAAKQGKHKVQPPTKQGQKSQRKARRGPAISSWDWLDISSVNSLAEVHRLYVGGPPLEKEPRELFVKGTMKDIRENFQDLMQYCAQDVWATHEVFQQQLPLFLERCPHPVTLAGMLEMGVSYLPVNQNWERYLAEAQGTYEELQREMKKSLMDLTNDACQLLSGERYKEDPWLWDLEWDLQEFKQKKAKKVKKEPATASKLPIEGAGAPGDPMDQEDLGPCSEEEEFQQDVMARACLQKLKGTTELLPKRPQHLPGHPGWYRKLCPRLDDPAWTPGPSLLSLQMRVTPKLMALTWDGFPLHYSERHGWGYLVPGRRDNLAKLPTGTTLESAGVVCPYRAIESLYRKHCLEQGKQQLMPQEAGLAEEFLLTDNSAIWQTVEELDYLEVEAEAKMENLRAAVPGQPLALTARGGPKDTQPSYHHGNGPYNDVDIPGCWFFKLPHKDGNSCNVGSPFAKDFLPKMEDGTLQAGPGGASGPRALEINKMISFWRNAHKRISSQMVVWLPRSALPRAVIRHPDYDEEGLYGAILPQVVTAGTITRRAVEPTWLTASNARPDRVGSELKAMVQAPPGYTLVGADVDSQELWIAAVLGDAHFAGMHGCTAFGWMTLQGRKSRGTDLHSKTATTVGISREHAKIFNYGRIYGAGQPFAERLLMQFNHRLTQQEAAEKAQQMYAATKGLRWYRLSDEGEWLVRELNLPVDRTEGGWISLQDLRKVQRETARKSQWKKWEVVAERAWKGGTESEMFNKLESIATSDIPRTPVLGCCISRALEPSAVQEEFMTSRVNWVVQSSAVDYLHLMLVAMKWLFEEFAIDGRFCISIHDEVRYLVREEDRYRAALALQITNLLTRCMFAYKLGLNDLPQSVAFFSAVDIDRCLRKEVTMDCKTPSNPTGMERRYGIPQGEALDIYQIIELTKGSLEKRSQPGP
T1 sequence (Q9UHN1 1-485 partner): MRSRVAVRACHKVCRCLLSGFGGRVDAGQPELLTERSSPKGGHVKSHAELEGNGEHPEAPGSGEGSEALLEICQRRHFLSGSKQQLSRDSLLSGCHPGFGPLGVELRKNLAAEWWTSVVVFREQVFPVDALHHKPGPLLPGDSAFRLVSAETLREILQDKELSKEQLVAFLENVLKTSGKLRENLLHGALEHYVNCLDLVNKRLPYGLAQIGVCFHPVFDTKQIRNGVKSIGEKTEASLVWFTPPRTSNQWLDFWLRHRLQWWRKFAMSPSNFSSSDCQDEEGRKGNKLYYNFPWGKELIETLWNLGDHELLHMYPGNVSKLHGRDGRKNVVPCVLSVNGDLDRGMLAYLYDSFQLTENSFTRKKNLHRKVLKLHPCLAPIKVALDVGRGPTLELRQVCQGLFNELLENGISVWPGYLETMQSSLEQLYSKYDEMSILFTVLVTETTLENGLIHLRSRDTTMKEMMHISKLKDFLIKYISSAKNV
Put plainly: DNA polymerization assay, POLγA:A467T mutant. Type of assay: biochemical. The conditions noted are these: stimulation of polymerase activity, primed M13mp18 ssDNA, 37° C. 2 hours; read-out: A467T AC50.
`Cc1cc(S(=O)(=O)Nc2cccc(C(=O)NCCO)c2)c(C)cc1Cl` [Example 53, 3-((4-chloro-2,5-dimethylphenyl)sulfonamido)-N-(2-hydroxyethyl)benzamide]: the AC50 (usually the concentration giving half of the maximal activity seen) is > 100 µM.

Take `Cc1cc(S(=O)(=O)Nc2cccc(C(=O)N3CCC[C@H]3C)c2F)c(C)cc1Cl` [Example 57, (R)-4-chloro-N-(2-fluoro-3-(2-methylpyrrolidine-1-carbonyl)phenyl)-2,5-dimethylbenzenesulfonamide]: the AC50 was > 100 µM.

For the molecule `Cc1cc(S(=O)(=O)Nc2csc(C3CCOCC3)n2)c(C)cc1Cl` [Example 167, 4-chloro-2,5-dimethyl-N-(2-(tetrahydro-2H-pyran-4-yl)thiazol-4-yl)benzenesulfonamide], the AC50 is 8 µM.

For the molecule `Cc1cc(S(=O)(=O)Nc2ccc(F)c(C(=O)N3CCC[C@H]3C)c2)c(C)cc1Cl` [Example 49, (R)-4-chloro-N-(4-fluoro-3-(2-methylpyrrolidine-1-carbonyl)phenyl)-2,5-dimethylbenzenesulfonamide], the AC50 is > 100 µM.

In the case of `Cc1ccc(C)c(S(=O)(=O)Nc2cccc(C(=O)N3CCSCC3C(N)=O)c2)c1` (stereo not shown) [Example 41, 4-(3-((2,5-dimethylphenyl)sulfonamido)benzoyl) thiomorpholine-3-carboxamide], the AC50 is > 100 µM.

For `Cc1ccc(C)c(S(=O)(=O)Nc2cccc(C(N)=O)c2)c1` [Example 27, 3-((2,5-dimethylphenyl)sulfonamido)benzamide], the AC50 was > 100 µM.

With `Cc1cc(S(=O)(=O)Nc2cccc(C(=O)N[C@H](C)CO)c2)c(C)cc1Cl` [Example 51, (R)-3-((4-chloro-2,5-dimethylphenyl)sulfonamido)-N-(1-hydroxypropan-2-yl)benzamide], the AC50 was > 100 µM.

For `COc1ccc(S(=O)(=O)Nc2cccc(C(=O)N3CCSCC3C#N)c2)cc1` (stereo not shown) [Example 34, N-(3-(3-cyanothiomorpholine-4-carbonyl)phenyl)-4-methoxybenzenesulfonamide], the AC50 is > 100 µM.

Take `CC[C@@H]1CCCN1C(=O)c1cccc(NS(=O)(=O)c2cc(C)c(Cl)cc2C)c1` [Example 65, (R)-4-chloro-N-(3-(2-ethylpyrrolidine-1-carbonyl)phenyl)-2,5-dimethylbenzenesulfonamide]: the AC50 amounted to 15 µM.

Take `N#CC1CSCCN1C(=O)c1cccc(NS(=O)(=O)c2cccc(C(F)(F)F)c2)c1` (stereo not shown) [Example 35, N-(3-(3-cyanothiomorpholine-4-carbonyl)phenyl)-3-(trifluoromethyl)benzenesulfonamide]: the AC50 is > 100 µM.

Take `Cc1ccc(C)c(S(=O)(=O)Nc2ccc(C(=O)N[C@@H](C)C3CC3)cc2)c1` [Example 39, (S)-N-(1-cyclopropylethyl)-4-((2,5-dimethylphenyl)sulfonamido)benzamide]: the AC50 was > 100 µM.

On to `Cc1ccc(C)c(S(=O)(=O)Nc2cncc(C(=O)N3CCOCC3)c2)c1` [Example 38, 2,5-dimethyl-N-(5-(morpholine-4-carbonyl)pyridin-3-yl)benzenesulfonamide], for which the AC50 is > 100 µM.

For `Cc1cc(S(=O)(=O)Nc2csc(C(=O)N3CCC[C@@H]3C)n2)c(C)cc1Cl` [Example 175, (S)-4-chloro-2,5-dimethyl-N-(2-(2-methylpyrrolidine-1-carbonyl)thiazol-4-yl)benzenesulfonamide], the AC50 came out at 3 µM.

For `Cc1cc(S(=O)(=O)Nc2csc(-c3ccn(C)n3)n2)c(C)cc1Cl` [Example 181, 4-chloro-2,5-dimethyl-N-(2-(1-methyl-1H-pyrazol-3-yl)thiazol-4-yl)benzenesulfonamide], the AC50 is > 10 µM.

As to `Cc1cc(S(=O)(=O)Nc2cccc(C(=O)N3CCN(CCO)CC3)c2)c(C)cc1Cl` [Example 55, 4-chloro-N-(3-(4-(2-hydroxyethyl)piperazine-1-carbonyl)phenyl)-2,5-dimethylbenzenesulfonamide], the AC50 was > 100 µM.

Consider `Cc1cc(S(=O)(=O)Nc2csc(C(=O)N3CCCC3)n2)c(C)cc1Cl` [Example 166, 4-chloro-2,5-dimethyl-N-(2-(pyrrolidine-1-carbonyl)thiazol-4-yl)benzenesulfonamide], for which the AC50 was 2 µM.
